Reference: patent US5707985A, “Naphthyl-, quinolyl- and isoquinolyl- sulfonamide derivatives as cell adhesion modulators” (Tanabe Seiyaku Co. Ltd., priority 1995, dated 1998)
Read-outs that look alike come from different tables or passages of the source.

Assays:
[1] = target: T1, interaction between ICAM-1 and LFA-1 (Homo sapiens, UniProt P05107+P20701); experiment: Adhesion of JY cells to TNF-α stimulated human endothelial cells (JY-EC); type: cell-based; conditions: for IC50: JY cells on TNF-α stimulated human endothelial cells, 30 minutes at 37° C., read-out: JY-EC IC50 (concentration at which adhesion is inhibited to 50% of control level)
T1 construct: endogenous in cells; host or cells: JY (human B cell line) for LFA-1; TNF-alpha stimulated HUVEC (Clonetics) for ICAM-1
Description: In order to establish the pharmacological properties of the compounds of formula (I) as a method of treatment for immuno-inflammatory disease in a patient suffering therefrom--such diseases being for the most part, but not limited exclusively to, graft rejection, ischemia reperfusion, asthma/allergy, delayed type hypersensitivity and AIDS--an in vitro assay was used to determine the effect of the compounds of the present invention on β2 mediated adhesion. Because human endothelial cells (EC's) express low levels of ICAM-1 on their surface and stimulation with TNF-α increases its expression, adhesion of lymphocytes can be measured following the principal assay design as described below for the human B cell line JY.
A. Cell Adhesion to Stimulated Endothelial Cells
Human umbilical vein endothelial cells (HUVEC) were purchased from Clonetics (San Diego, Calif.) at passage number 2. The cells were growth on 0.5% porcine skin gelatin pre-coated flasks (Sigma, St. Louis, Mo.) in EGM-UV media (Clonetics, San Diego, Calif.) supplemented with 10% fetal bovine serum. Cells are re-fed every 2-3 days, reaching confluence by day 4 to 6. […] The endothelial cells are not used following passage 7. Endothelial cells are grown to confluency in 96-well micro-titer assay plate.
The human B cell line JY was cultured in RPMI media containing 10% fetal calf serum at 37° C. in a humidified CO2 atmosphere. JY cells are loaded with the fluorescent dye indicator BCECF as follows: JY cells are washed twice with HBSS and cells are then re-suspended in HBSS at 5×10^6 cells/ml; BCECF-AM (Molecular Probes), stock concentration=1 mg/ml in DMSO, is added to the JY cells to a final concentration of 2 μg/ml; cells are incubated in the dark at 37° C. for 30-45 minutes; washed twice with HBSS and used in the assay.
The compounds presented in this invention are typically dissolved in 2.5 mg HSA/ml DME at four times the assay concentration and pH adjusted with 7.5% Na bicarbonate as needed. A confluent monolayer of human EC's in microtiter plates is stimulated with 50 U/ml TNF-α for 20 hours, and on the next day washed twice with DMEM-HSA before use. The EC's may be fixed by treatment with 3% paraformaldehyde. The assay plate is placed on ice, and test compound is added to quadruplicate wells, then all wells received 2.5×10^5 labeled JY cells and an optional stimulus (e.g. phorbol ester). Plates are incubated for 30 minutes at 37° C. in a CO2 incubator. Plates are washed four times with 100 μl PBS/well and the fluorescence of the adherent cells is measured using a fluorescence reader. Fluorescence in each well is measured as Arbitrary Fluorescence Units and percent adhesion in the absence of peptide is adjusted to 100% and the percent adhesion in the presence of peptides is calculated. Inhibitory concentrations (IC50) are determined based on 100% adhesion of cells that were incubated in the absence of drugs. Stimulation of protein kinase C by phorbol esters such as […] (PMA) increases the observed adhesion approximately 5-fold. This PMA induced adhesion is 100% blocked by anti-LFA-1 or anti-CD18 antibodies and about 75-80% by anti-ICAM-1 antibodies, while it is unaffected by antibodies to Mac-1, α4 or control antibodies. Thus, this assay measures preferentially the interaction between ICAM-1 and LFA-1.

JY cells = experiment: Proliferation of JY cells (cytotoxicity evaluation); type: cell-based, human
Description: (§1) The activity in the assay was not due to cytotoxic activity of the compounds.

U937 cells = type: cell-based
Description: as §1

rhinovirus = conditions: Martin, S. D. et al.; cited from earlier work

T1 sequence (P20701 26-1170): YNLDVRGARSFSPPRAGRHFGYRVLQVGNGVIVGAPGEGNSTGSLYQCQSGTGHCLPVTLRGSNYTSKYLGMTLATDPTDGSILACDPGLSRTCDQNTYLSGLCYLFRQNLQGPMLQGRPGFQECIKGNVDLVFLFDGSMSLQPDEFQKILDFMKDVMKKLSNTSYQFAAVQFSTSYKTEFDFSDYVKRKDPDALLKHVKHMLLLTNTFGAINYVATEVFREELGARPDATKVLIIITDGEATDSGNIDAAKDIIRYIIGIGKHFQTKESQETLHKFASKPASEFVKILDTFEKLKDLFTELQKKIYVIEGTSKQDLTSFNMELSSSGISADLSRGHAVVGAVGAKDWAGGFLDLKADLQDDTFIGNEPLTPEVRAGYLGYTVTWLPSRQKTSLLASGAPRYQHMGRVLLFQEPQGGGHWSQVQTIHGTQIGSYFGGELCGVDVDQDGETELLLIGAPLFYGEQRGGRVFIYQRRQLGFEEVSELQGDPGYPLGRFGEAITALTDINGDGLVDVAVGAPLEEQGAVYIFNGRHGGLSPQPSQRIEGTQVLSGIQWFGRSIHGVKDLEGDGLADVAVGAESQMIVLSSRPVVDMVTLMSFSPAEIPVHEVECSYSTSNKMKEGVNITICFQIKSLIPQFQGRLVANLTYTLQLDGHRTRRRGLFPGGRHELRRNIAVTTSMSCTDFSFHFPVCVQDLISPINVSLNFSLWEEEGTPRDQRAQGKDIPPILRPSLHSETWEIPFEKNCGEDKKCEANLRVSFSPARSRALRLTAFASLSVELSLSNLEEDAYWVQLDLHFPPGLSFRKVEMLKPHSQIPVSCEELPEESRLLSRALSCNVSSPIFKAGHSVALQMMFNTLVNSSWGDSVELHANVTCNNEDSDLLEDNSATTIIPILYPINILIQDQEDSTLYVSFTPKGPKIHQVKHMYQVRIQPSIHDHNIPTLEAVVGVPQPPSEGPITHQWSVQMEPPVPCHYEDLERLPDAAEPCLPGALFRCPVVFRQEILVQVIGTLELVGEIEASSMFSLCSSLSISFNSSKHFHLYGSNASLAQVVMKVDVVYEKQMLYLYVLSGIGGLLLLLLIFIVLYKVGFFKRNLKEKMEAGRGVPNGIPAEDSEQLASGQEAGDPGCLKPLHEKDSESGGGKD
T1 sequence (P05107 23-769): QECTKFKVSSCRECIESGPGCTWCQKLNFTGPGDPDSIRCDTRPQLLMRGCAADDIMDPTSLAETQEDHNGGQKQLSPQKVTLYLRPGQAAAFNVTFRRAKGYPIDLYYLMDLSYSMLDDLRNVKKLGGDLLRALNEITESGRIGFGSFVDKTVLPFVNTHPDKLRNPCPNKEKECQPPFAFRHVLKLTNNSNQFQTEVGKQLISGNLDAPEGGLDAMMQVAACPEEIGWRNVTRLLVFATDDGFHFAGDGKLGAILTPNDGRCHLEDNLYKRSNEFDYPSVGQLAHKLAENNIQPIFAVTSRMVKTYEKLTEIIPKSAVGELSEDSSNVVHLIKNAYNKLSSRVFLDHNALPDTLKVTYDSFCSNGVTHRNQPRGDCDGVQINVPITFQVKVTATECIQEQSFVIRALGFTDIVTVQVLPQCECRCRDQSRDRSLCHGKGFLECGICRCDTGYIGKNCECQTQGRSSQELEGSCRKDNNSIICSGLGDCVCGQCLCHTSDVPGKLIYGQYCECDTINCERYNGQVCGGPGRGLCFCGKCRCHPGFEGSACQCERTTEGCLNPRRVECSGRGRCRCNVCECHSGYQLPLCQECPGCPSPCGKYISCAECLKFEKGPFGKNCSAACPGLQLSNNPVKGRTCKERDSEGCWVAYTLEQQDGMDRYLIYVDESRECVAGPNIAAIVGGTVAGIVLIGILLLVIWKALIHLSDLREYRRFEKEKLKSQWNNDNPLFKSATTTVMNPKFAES

Row | Molecule | IC50 [1] | other results
1 | O=S(=O)(c1ccc2c(Cl)cccc2c1)N1CC2CCC(CC2)C1 [Example 5, 3-(5-Chloro-2-naphthylsulfonyl)-3-azabicyclo[3.2.2]nonane] | 0.5 µM | inhibition of proliferation of JY cells (JY cells): did not inhibit the proliferation of JY cells; inhibition of proliferation of U937 cells (U937 cells): did not inhibit the proliferation of JY cells or U937 cells
2 | O=S(=O)(c1ccc2c(Cl)cccc2c1)N1CC2CC1CS2 (stereo not drawn) [Example 20, 5-(5-Chloro-2-naphthylsulfonyl-2-thia-5-azabicyclo-2.2.1]heptane] | 6 µM | 
3 | Nc1cccc2cc(S(=O)(=O)N3CC4CCC(CC4)C3)ccc12 [Example 35, 3-(5-Amino-2-naphthylsulfonyl)-3-azabicyclo[3.2.2]nonane] | 13.6 µM | 
4 | O=C(O)C12CC3CC(CC(NS(=O)(=O)c4ccc5c(Cl)cccc5c4)(C3)C1)C2 [Example 24, 1-(5-Chloro-2-naphthylsulfonyl)-1-amino-3-adamantane-carboxylic acid] | 136 µM | 
5 | O=S(=O)(c1cc(OCc2cccnc2)c2ccccc2c1)N1CC2CC3CC(C2)CC1C3 [Example 55, 4-[1-(3-Pyridinylmethoxy)-3-naphthylsulfonyl]-4-azahomoadamantane] | 2.1 µM | 
6 | O=S(=O)(c1ccc2ncccc2c1)N1CC2CCC(CC2)C1 [Example 29, 3-(6-Quinolinesulfonyl)-3-azabicyclo[3.2.2]nonane] | 8 µM | 
7 | COc1ccc(S(=O)(=O)N2CC3CCC(CC3)C2)c2ccccc12 [Example 44, 3-(4-Methoxy-1-naphthylsulfonyl)-3-azabicyclo[3.2.2]nonane] | 1.6 µM | 
8 | O=S(=O)(NC12CC3CC(CC(C3)C1)C2)c1ccc2c(Cl)cccc2c1 [Example 3, 1-(5-Chloro-2-naphthylsulfonyl)-1-aminoadamantane] | 3 µM | inhibition of proliferation of JY cells (JY cells; at concentrations active in the adhesion assay, measured after 20 hours): did not inhibit the proliferation of JY cells; inhibition of proliferation of U937 cells (U937 cells): did not inhibit the proliferation of JY cells or U937 cells
9 | O=S(=O)(c1ccc2c(Cl)cccc2c1)N1CC2CC1CO2 (stereo not drawn) [Example 21, 5-(5-Chloro-2-naphthylsulfonyl)-2-oxa-5-azabicyclo-[2.2.1]heptane] | 86 µM | 
10 | O=S(=O)(c1ccc2c(Cl)cccc2c1)N1CC2CC3CC(C2)CC1C3 [Example 18, 4-(5-Chloro-2-naphthylsulfonyl)-4-azahomoadamantane] | 0.25 µM | 
11 | CC(=O)Oc1cccc2cc(S(=O)(=O)NC34CC5CC(CC(C5)C3)C4)ccc12 [Example 15, 1-(5-Acetoxy-2-naphthylsulfonyl)-1-aminoadamantane] | 56 µM | 
12 | O=S(=O)(c1cc(OCc2cccnc2)c2ccccc2c1)N1CC2CCC(CC2)C1 [Example 54, 3-[1-(3-Pyridinylmethoxy)-3-naphthylsulfonyl]-3-azabicyclo[3.2.2]nonane] | 4.4 µM | 
13 | O=S(=O)(NC12CC3CC(CC(C3)C1)C2)c1ccc2ncccc2c1 [Example 30, 1-(6-Quinolinesulfonyl)-1-aminoadamantane] | 23 µM | 
14 | CCCCCCCCCCCCCC(=O)O[C@@H]1[C@@H](C)[C@@]2(O)[C@@H](C=C(CO)C[C@]3(O)C(=O)C(C)=C[C@@H]23)[C@@H]2C(C)(C)[C@]12OC(C)=O [13,14-phorbol myristate acetate (PMA), 13,14-phorbol myristate acetate, reference compound] |  | increase of observed adhesion ([1]; stimulation of protein kinase C by PMA): approximately 5 fold
15 | O=S(=O)(c1ccc2ncccc2c1)N1CC2CC3CC(C2)CC1C3 [Example 31, 4-(6-Quinolinesulfonyl)-4-azahomoadamantane] | 5 µM | 
16 | O=S(=O)(c1ccc2c(Cl)cccc2c1)N1CC2CCC(C2)C1 [Example 17, 3-(5-Chloro-2-naphthylsulfonyl)-3-azabicyclo[3.2.1]-octane] | 15 µM | 
17 | soluble ICAM-1: soluble ICAM-1, specific inhibitor of rhinovirus infection (protein, UniProt P05362 28-480, looked up, extracellular domain) extracellular domain: QTSVSPSKVILPRGGSVLVTCSTSCDQPKLLGIETPLPKKELLLPGNNRKVYELSNVQEDSQPMCYSNCPDGQSTAKTFLTVYWTPERVELAPLPSWQPVGKNLTLRCQVEGGAPRANLTVVLLRGEKELKREPAVGEPAEVTTTVLVRRDHHGANFSCRTELDLRPQGLELFENTSAPYQLQTFVLPATPPQLVSPRVLEVDTQGTVVCSLDGLFPVSEAQVHLALGDQRLNPTVTYGNDSFSAKASVSVTAEDEGTQRLTCAVILGNQSQETLQTVTIYSFPAPNVILTKPEVSEGTEVTVKCEAHPRAKVTLNGVPAQPLGPRAQLLLKATPEDNGRSFSCSATLEVAGQLIHKNQTRELRVLYGPRLDERDCPGNWTWPENSQQTPMCQAWGNPLPELKCLKDGTFPLPIGESVTVTRDLEGTYLCRARSTQGEVTRKVTVNVLSPRYE |  | inhibition of rhinovirus infection (rhinovirus): act as specific inhibitor of rhinovirus infection
